In the Kinase Knowledgebase extract (Sharma et al. 2016):

Key:
[1] = target: PIK3CB (Human) (UniProt P42338); assay: Assessment of PIK3CB Kinase Binding Activity
[2] = target: PIK3CA (human) (UniProt P42336); assay: Assessment of PIK3CA Kinase Binding Activity
[3] = target: PIK3CG (human) (UniProt P48736); assay: Assessment of PIK3CG Kinase Binding Activity
[4] = target: PIK3CD (Human) (UniProt O00329); assay: Assessment of PIK3CD Kinase Binding Activity
[5] = target: PIK3CA (human) (UniProt P42336); assay: Inhibition of A2780 Cell Proliferation
[6] = target: PIK3CA (human) (UniProt P42336); assay: Inhibition of PIK3CA Kinase Activity

PIK3CB (Human), sequence (P42338 whole entry, looked up): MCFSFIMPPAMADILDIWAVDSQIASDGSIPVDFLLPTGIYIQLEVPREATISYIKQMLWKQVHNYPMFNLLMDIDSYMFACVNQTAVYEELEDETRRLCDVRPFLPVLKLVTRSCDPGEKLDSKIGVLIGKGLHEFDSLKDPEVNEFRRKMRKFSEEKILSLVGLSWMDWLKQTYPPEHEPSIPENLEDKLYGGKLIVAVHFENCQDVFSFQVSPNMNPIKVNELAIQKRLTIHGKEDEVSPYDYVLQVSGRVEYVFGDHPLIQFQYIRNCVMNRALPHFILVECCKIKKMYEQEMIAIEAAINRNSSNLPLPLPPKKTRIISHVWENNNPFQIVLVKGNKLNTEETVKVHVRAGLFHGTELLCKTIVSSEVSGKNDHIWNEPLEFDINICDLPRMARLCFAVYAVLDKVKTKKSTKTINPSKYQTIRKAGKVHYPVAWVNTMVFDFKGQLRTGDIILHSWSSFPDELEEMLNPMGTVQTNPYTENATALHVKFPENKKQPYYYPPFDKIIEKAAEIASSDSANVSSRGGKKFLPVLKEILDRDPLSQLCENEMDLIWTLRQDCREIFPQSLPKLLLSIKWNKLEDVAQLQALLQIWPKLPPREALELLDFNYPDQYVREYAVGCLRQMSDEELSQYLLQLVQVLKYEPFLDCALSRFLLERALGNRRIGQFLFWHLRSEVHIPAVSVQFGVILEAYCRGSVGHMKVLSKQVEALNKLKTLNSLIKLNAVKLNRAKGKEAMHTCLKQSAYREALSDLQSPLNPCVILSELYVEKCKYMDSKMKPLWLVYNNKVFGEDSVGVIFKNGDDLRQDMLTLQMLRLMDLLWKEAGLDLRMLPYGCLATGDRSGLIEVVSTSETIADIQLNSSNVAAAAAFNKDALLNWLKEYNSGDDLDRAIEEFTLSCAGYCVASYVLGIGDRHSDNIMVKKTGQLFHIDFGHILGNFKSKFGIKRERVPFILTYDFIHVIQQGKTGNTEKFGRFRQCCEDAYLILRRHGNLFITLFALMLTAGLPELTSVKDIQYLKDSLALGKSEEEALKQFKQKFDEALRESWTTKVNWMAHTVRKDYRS
PIK3CD (Human), sequence (O00329 whole entry, looked up): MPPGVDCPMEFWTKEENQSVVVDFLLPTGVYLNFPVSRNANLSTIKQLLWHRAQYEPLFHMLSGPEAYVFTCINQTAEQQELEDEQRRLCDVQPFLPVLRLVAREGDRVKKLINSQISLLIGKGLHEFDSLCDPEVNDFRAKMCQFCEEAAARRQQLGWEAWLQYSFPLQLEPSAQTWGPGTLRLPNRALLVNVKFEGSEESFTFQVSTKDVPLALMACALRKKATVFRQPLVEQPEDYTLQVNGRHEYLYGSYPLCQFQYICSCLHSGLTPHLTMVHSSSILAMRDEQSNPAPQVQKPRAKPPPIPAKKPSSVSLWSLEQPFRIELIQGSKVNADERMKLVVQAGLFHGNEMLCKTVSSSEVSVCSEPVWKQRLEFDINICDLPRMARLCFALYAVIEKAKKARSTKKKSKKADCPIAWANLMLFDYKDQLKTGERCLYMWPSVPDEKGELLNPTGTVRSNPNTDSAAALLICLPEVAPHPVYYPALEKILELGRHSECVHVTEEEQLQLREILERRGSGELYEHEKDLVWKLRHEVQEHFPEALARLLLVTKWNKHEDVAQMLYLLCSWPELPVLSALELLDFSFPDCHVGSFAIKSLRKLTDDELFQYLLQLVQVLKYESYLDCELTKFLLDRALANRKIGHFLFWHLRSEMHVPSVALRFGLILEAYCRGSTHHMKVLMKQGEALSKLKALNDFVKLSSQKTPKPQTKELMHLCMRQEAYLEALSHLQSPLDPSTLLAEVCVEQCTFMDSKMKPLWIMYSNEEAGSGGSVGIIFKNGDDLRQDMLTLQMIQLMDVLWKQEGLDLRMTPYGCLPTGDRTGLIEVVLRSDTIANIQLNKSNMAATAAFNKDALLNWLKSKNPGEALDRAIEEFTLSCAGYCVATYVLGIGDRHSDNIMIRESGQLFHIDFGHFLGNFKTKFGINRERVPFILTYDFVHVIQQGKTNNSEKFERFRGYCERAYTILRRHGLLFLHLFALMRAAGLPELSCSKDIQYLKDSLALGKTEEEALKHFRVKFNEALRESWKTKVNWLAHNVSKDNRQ
PIK3CG (human), sequence (P48736 whole entry, looked up): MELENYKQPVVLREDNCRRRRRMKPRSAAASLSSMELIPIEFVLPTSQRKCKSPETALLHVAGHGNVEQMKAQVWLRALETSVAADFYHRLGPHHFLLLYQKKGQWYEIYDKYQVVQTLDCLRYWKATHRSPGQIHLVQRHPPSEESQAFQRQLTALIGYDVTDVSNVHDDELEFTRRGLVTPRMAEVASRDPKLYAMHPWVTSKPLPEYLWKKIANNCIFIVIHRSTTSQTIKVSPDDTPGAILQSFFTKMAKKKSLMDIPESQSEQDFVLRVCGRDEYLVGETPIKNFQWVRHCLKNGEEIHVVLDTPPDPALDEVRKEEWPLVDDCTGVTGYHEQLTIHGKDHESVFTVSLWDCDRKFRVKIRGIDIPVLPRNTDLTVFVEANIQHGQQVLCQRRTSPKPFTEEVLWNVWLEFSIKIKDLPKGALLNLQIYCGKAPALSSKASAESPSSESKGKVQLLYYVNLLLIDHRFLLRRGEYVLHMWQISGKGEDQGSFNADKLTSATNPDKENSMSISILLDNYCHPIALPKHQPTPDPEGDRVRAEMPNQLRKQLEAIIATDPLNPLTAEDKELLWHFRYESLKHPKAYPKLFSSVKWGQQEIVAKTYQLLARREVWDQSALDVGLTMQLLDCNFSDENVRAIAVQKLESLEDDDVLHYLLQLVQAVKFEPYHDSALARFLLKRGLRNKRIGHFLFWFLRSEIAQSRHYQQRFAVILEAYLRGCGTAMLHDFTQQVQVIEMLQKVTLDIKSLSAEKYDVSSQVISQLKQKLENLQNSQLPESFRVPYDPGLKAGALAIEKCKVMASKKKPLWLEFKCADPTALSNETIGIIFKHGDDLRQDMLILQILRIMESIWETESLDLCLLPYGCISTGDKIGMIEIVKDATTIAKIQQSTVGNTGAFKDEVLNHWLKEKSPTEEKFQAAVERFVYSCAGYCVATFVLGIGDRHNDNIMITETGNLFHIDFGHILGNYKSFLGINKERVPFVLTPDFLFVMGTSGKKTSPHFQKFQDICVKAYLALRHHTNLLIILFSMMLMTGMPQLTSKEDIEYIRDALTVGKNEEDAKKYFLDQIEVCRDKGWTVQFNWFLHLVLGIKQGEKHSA
PIK3CA (human), sequence (P42336 whole entry, looked up): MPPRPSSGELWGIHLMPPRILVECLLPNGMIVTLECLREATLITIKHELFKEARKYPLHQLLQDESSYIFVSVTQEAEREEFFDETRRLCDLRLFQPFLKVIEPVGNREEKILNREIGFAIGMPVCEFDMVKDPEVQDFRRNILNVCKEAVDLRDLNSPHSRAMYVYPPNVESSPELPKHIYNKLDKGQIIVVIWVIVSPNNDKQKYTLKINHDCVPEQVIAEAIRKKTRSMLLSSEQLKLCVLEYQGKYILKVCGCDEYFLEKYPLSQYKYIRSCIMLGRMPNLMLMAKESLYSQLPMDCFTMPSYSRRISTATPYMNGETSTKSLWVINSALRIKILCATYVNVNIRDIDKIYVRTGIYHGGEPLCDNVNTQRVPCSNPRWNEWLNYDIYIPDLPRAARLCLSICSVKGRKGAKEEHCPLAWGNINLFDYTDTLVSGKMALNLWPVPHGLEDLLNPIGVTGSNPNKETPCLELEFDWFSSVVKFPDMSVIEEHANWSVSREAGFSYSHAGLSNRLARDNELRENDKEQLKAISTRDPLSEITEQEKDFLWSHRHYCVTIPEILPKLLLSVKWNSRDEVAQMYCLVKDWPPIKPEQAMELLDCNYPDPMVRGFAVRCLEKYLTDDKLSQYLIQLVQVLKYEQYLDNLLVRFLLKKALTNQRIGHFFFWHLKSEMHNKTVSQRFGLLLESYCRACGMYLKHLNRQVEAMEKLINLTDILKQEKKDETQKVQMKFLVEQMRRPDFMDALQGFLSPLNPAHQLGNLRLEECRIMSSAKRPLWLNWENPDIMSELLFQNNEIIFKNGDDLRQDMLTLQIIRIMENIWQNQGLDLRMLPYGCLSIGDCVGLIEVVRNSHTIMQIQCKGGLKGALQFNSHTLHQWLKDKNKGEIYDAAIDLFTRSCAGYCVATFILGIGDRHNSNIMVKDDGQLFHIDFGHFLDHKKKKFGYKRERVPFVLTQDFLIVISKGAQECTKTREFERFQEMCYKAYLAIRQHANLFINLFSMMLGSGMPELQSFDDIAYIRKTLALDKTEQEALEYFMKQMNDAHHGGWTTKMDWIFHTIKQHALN

| SMILES | Ki [1] [nM] | Ki [2] [nM] | Ki [3] [nM] | Ki [4] [nM] | EC50 [5] [nM] | IC50 [6] [nM] |
| --- | --- | --- | --- | --- | --- | --- |
| CC(C)n1nnc(CCNC(=O)Nc2cn3cc(-c4ccc(N)nc4)ccc3n2)n1 | < 1000 | < 10000 | < 1000 | < 1000 |  |  |
| CCn1nnc(CCNC(=O)Nc2cn3cc(-c4cnc(N)c(C(F)(F)F)c4)ccc3n2)n1 | < 1000 | < 1000 | < 1000 | < 1000 |  |  |
| CCc1nnn(CCNC(=O)Nc2cn3cc(-c4cnc(N)c(C(F)(F)F)c4)ccc3n2)n1 | < 1000 | < 1000 | < 1000 | < 1000 |  |  |
| CCc1cnc(CCNC(=O)Nc2cn3cc(-c4cnc(N)c(C(F)(F)F)c4)ccc3n2)o1 | < 1000 | < 1000 | < 1000 | < 1000 |  |  |
| CC(C)(C)OC(=O)NCCC(=O)Nc1cn2nc(-c3cnc(N)c(C(F)(F)F)c3)ccc2n1 |  |  |  |  | < 10000 | < 1000 |
| CC(=O)Nc1nc2ccc(-c3cnc(N)c(C(F)(F)F)c3)cn2c1C#Cc1ccccn1 |  |  |  |  | < 10000 | < 1000 |
| CC(C)C(=O)Nc1cn2cc(-c3cnc(N)c(OCC(F)(F)F)n3)ccc2n1 |  |  |  |  | < 10000 | < 1000 |
| CC(=O)Nc1cn2cc(-c3ccc(N)nc3F)ccc2n1 |  |  |  |  | < 10000 | < 1000 |
| Nc1ncc(-c2ccc3nc(NC(=O)NCCn4nnc(C5CC5)n4)cn3c2)cc1C(F)(F)F | < 1000 | < 1000 | < 1000 | < 1000 |  |  |
| COC(=O)C1CCN(C(=O)Nc2cn3cc(-c4cnc(N)c(C(F)(F)F)c4)ccc3n2)C1 (centres undefined) |  |  |  |  | < 10000 | < 1000 |
| Nc1ncc(-c2ccc3nc(NC(=O)c4ccncc4)cn3c2)cc1C(F)(F)F |  |  |  |  | < 25000 | < 1000 |
| CC(=O)Nc1nc2ccc(-c3cnc(N)c(Br)c3)cn2c1Br |  |  |  |  | < 10000 | < 1000 |
| CC(C)(C)OC(=O)NCC(=O)Nc1cn2cc(-c3cnc(N)c(C(F)(F)F)c3)ccc2n1 |  |  |  |  | < 10000 | < 1000 |
| CCOCC(=O)Nc1cn2cc(-c3cnc(N)c(C(F)(F)F)c3)ccc2n1 |  |  |  |  | < 10000 | < 1000 |
| Nc1ncc(-c2ccc3nc(NC(=O)CO[C@@H]4CCNC4)cn3c2)cc1C(F)(F)F |  |  |  |  | < 10000 | < 1000 |
| NCC(=O)Nc1cn2nc(-c3cnc(N)c(C(F)(F)F)c3)ccc2n1 |  |  |  |  | < 1000 | < 1000 |
| CC(=O)Nc1cn2nc(-c3cnc(N)c(-c4cccc(C(F)(F)F)c4)c3)ccc2n1 |  |  |  |  | < 10000 | < 1000 |
| CC(=O)Nc1nc2ccc(-c3cnc(N)c(OCC(F)(F)F)n3)cc2s1 |  |  |  |  | < 1000 | < 1000 |
| CC(=O)Nc1cn2cc(-c3cnc(N)c(-c4ccc(N5CCOCC5)cc4)c3)ccc2n1 |  |  |  |  | < 10000 | < 10000 |
| CC(C)n1nnc(CCNC(=O)Nc2cn3cc(-c4cnc(N)c(C(F)(F)F)c4)ccc3n2)n1 | < 1000 | < 1000 | < 1000 | < 1000 |  |  |
| Nc1ncc(-c2ccc3nc(NC(=O)[C@@H]4CCCN4)cn3c2)cc1C(F)(F)F |  |  |  |  | < 10000 | < 25000 |
| CC(=O)Nc1nc2ccc(-c3cnc(N)c(C(=O)N4CCOCC4)c3)cc2s1 |  |  |  |  | < 10000 | < 1000 |
| CC(=O)Nc1cn2cc(-c3cnc(N)c(C#N)c3)ccc2n1 |  |  |  |  | < 10000 | < 1000 |
| COCC(=O)Nc1cn2cc(-c3cnc(N)c(OCC(F)(F)F)n3)ccc2n1 |  |  |  |  | < 1000 | < 1000 |
| CC(=O)Nc1nc2ccc(-c3cnc(N)c(C(F)(F)F)c3)cn2c1C(N)=O |  |  |  |  | < 10000 | < 1000 |
| CC(=O)Nc1cn2cc(-c3cnc(N)c(C(F)(F)F)c3)cc(F)c2n1 |  |  |  |  | < 10000 | < 1000 |

| SMILES | Ki [1] [nM] | Ki [2] [nM] | Ki [3] [nM] | Ki [4] [nM] | EC50 [5] [nM] | IC50 [6] [nM] |
| --- | --- | --- | --- | --- | --- | --- |
| CC(=O)Nc1cn2nc(-c3cnc(N)c(-c4ccccc4)c3)ccc2n1 |  |  |  |  | < 1000 | < 1000 |
| Nc1ncc(-c2ccc3nc(NC(=O)C4CNC4)cn3c2)cc1C(F)(F)F |  |  |  |  | < 10000 | < 1000 |
| CC(=O)Nc1cn2cc(-c3cnc(N)c(Oc4cccnc4)n3)ccc2n1 |  |  |  |  | < 1000 | < 1000 |
| COc1cccc(-c2cc(-c3ccc4nc(NC(C)=O)cn4n3)cnc2N)n1 |  |  |  |  | < 10000 | < 1000 |
| CC(=O)Nc1nc2ccc(-c3cnc(N)c(C(F)(F)F)c3)cn2c1CCc1ccccc1 |  |  |  |  | < 10000 | < 1000 |
| Nc1ncc(-c2ccc3nc(NC(=O)[C@@H]4CCCN4)cn3n2)cc1C(F)(F)F |  |  |  |  | < 10000 | < 1000 |
| CC(=O)Nc1cn2cc(-c3cnc(N)c(Oc4ccccc4)n3)ccc2n1 |  |  |  |  | < 1000 | < 1000 |
| Nc1ccc(-c2ccc3nc(NC(=O)CN4CCOCC4)sc3c2)cn1 |  |  |  |  | < 25000 | < 1000 |
| CC(=O)Nc1cn2c(C)c(-c3cnc(N)c(OCC(F)(F)F)n3)ccc2n1 |  |  |  |  | < 10000 | < 1000 |
| NC(=O)Nc1cn2cc(-c3cnc(N)c(C(F)(F)F)c3)ccc2n1 |  |  |  |  | < 10000 | < 1000 |
| Nc1ncc(-c2ccc3nc(NC(=O)CCCN4CCOCC4)cn3n2)cc1C(F)(F)F |  |  |  |  | < 1000 | < 1000 |
| CNC(=O)[C@@H]1CCN1C(=O)Nc1cn2cc(-c3cnc(N)c(C(F)(F)F)c3)ccc2n1 |  |  |  |  | < 25000 | < 25000 |
| CC(=O)Nc1nc2ccc(-c3cnc(N)c(C(F)(F)F)c3)cn2c1-c1ccccc1 |  |  |  |  | < 25000 | < 1000 |
| CCOCC(=O)Nc1cn2nc(-c3cnc(N)c(C(F)(F)F)c3)ccc2n1 |  |  |  |  | < 10000 | < 1000 |
| Nc1ncc(-c2ccc3nc(NC(=O)[C@H]4CCCN4)cn3n2)cc1C(F)(F)F |  |  |  |  | < 25000 | < 1000 |
| C/C=C\c1c(NC(C)=O)nc2ccc(-c3cnc(N)c(C(F)(F)F)c3)cn12 |  |  |  |  | < 25000 | < 1000 |
| CC(=O)Nc1cn2cc(-c3cnc(N)c(Oc4ccc(F)cc4)n3)ccc2n1 |  |  |  |  | < 1000 | < 1000 |
| Nc1ncc(-c2ccc3nc(NC(=O)C4CCN4)cn3c2)nc1OCC(F)(F)F (centres undefined) |  |  |  |  | < 10000 | < 1000 |
| CC(C)(C)OC(=O)NCCCC(=O)Nc1cn2nc(-c3cnc(N)c(C(F)(F)F)c3)ccc2n1 |  |  |  |  | < 1000 | < 1000 |
| CC(=O)Nc1nc2ccc(-c3cnc(N)c(C(F)(F)F)c3)cn2c1Cl |  |  |  |  | < 10000 | < 1000 |
| CC(=O)Nc1nc2c(F)cc(-c3cnc(N)c(C(F)(F)F)c3)cc2s1 |  |  |  |  | < 25000 | < 1000 |
| CCN1CC[C@@H](OCC(=O)Nc2cn3cc(-c4cnc(N)c(C(F)(F)F)c4)ccc3n2)C1 |  |  |  |  | < 10000 | < 1000 |
| CC(=O)Nc1nc2ccc(-c3cnc(N)nc3C(F)(F)F)cc2s1 |  |  |  |  | < 25000 | < 1000 |
| Nc1ccc(-c2ccc3nc(NC(=O)CCCN4CCOCC4)sc3c2)cn1 |  |  |  |  | < 25000 | < 1000 |
| CC(=O)Nc1cn2cc(-c3ccc(N)nc3)ccc2n1 |  |  |  |  | < 10000 | < 1000 |
